# Measurements: US9556152B2, “Heterocyclic amides as kinase inhibitors” (GlaxoSmithKline Intellectual Property Development Limited, priority 2013, dated 2017)
# Where two headings read alike, the source gives them in different places.
# Legend:
# [1] = system: mouse TNF and zVAD induced temperature loss in mice; assay: TNF/zVAD-driven systemic inflammatory response syndrome model (short modality), temperature loss; format: in vivo
# Experimental: (§1) TNF (or TNF/zVAD) induced manifestations include temperature loss, the production of numerous cytokines (including IL-6, IL-1b, MIP1β and MIP2) in the periphery, liver and intestinal inflammation and an increase of markers of cellular (LDH and CK) and liver damage (AST and ALT) in the serum.
# Each test compound is run through the TNF/zVAD and TNF (alone) versions of the model. For example, mice (7 mice per group) were orally pre-dosed with vehicle or test compound at 50 mg/kg 15 minutes before i.v. administration of mouse TNF (30 m/mouse) and zVAD (0.4 mg/mouse) simultaneously. Temperature loss in the mice was measured by rectal probe. The study was terminated when the control group lost 7 degrees, per our IACUC protocol. […] All data are shown as means±standard error of the mean.
# [2] = system: mouse TNF induced temperature loss in mice; assay: TNF (alone)-driven systemic inflammatory response syndrome model (long modality), temperature loss; format: in vivo; details: oral pre-dose 50 mg/kg 15 minutes before i.v. mouse TNF
# Experimental: as §1
# In addition to the TNF/zVAD model, each compound is also tested in a TNF alone model. For the TNF (alone) version of the model, mice (7 mice per group) were orally pre-dosed with vehicle or test compound at 50 mg/kg 15 minutes before i.v. administration of mouse TNF (30 m/mouse). […] All data are shown as means±standard error of the mean.
# [3] = target: T1, RIP1 kinase (GST-RipK1 (1-375)) (Homo sapiens, UniProt Q13546)
# T1 sequence (Q13546 1-375): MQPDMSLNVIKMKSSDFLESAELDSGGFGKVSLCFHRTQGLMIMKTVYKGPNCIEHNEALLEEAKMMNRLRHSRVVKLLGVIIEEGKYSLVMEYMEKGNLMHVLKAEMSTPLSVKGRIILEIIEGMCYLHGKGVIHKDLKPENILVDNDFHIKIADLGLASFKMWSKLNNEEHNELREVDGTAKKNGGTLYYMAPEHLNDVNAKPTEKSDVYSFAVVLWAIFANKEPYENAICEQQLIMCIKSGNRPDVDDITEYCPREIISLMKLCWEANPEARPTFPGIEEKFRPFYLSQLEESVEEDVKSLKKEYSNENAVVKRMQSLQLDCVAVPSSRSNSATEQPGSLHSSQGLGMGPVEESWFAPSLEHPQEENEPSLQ
# Experimental: A fluorescent polarization based binding assay was developed to quantitate interaction of novel test compounds at the ATP binding pocket of RIP1, by competition with a fluorescently labeled ATP competitive ligand. […] Following the incubation, 5 ul of the fluorescent labeled ligand solution, was added to each reaction, at twice the final assay concentration, and incubated at room temperature for at least 15 minutes. Finally, samples were read on an instrument capable of measuring fluorescent polarization. Test compound inhibition was expressed as percent (%) inhibition of internal assay controls. For concentration response experiments, normalized data were fit and pIC50s determined using conventional techniques.
# [4] = oral pre-dose 30 mg/kg 15 minutes before i.v. mouse TNF and zVAD
# [5] = oral pre-dose 10 mg/kg 15 minutes before i.v. mouse TNF and zVAD
# [6] = average pIC50 after continued testing, FP competition binding, updated average after continued testing
# [7] = mean pIC50, FP competition binding, GST-RipK1 (1-375) 10 nM, fluorescent ligand 5 nM, mean of minimum 2 experiments
SMILES,"% Inhibition [1, 4] [%]","IC50 [3, 7] [nM]",also measured
"Cc1ccc(Cc2cc(C(=O)N[C@H]3CNc4ccccc4N(C)C3=O)n[nH]2)cc1 [Example 64, (S)-N-(1-methyl-2-oxo-2,3,4,5-tetrahydro-1H-benzo[b][1,4]diazepin-3-yl)-5-(4-methylbenzyl)-1H-pyrazole-3-carboxamide]",62,–,–
"O=C(N[C@H]1CCc2ccccc2NC1=O)c1cc(Cc2ccccc2)on1 [Example 236, (S)-5-benzyl-N-(2-oxo-2,3,4,5-tetrahydro-1H-benzo[b]azepin-3-yl)isoxazole-3-carboxamide]",23,–,–
"CN1C(=O)[C@@H](NC(=O)c2ncn(Cc3ccccc3)n2)COc2ccccc21 [Example 45, (S)-1-benzyl-N-(5-methyl-4-oxo-2,3,4,5-tetrahydrobenzo[b] [1,4]oxazepin-3-yl)-1H-1,2,4-triazole-3-carboxamide]",–,–,"% Inhibition [1, 5]: 91%"
"Cc1ccc(Cc2cc(C(=O)N[C@H]3COc4ccccc4N(C)C3=O)[nH]n2)cc1 [Example 176, (S)-N-(5-methyl-4-oxo-2,3,4,5-tetrahydrobenzo[b] [1,4]oxazepin-3-yl)-5-(4-methylbenzyl)-1H-pyrazole-3-carboxamide]",34,–,–
"CN1C(=O)[C@@H](NC(=O)c2cc(Cc3ccccc3)on2)CNc2ccccc21 [Example 235, (S)-5-benzyl-N-(1-methyl-2-oxo-2,3,4,5-tetrahydro-1H-benzo[b] [1,4]diazepin-3-yl)isoxazole-3-carboxamide]",58,–,% Inhibition [2]: 73%
"Cc1nnc(-c2ccc3c(c2)N(C)C(=O)[C@@H](NC(=O)c2nnc(Cc4ccccc4)[nH]2)CO3)o1 [Example 169, (S)-5-benzyl-N-(5-methyl-7-(5-methyl-1,3,4-oxadiazol-2-yl)-4-oxo-2,3,4,5-tetrahydrobenzo[b][1, 4]oxazepin-3-yl)-4H-1,2,4-triazole-3-carboxamide]",–,~63.1,"IC50 [3, 6]: 50.1 nM"
"O=C(N[C@H]1CCc2cc(Br)ccc2NC1=O)c1nnc(Cc2ccccc2)[nH]1 [Example 163, (S)-5-benzyl-N-(7-bromo-2-oxo-2,3,4,5-tetrahydro-1H-benzo[b]azepin-3-yl)-4H-1,2,4-triazole-3-carboxamide]",–,~12.6,"% Inhibition [1, 5]: 73%"
"CN1C(=O)[C@@H](NC(=O)c2cc(Cc3ccc(F)cc3)n[nH]2)COc2ccccc21 [Example 125, (S)-3-(4-fluorobenzyl)-N-(5-methyl-4-oxo-2,3,4,5-tetrahydrobenzo[b] [1,4]oxazepin-3-yl)-1H-pyrazole-5-carboxamide]",25,–,–
"CN1C(=O)[C@@H](NC(=O)c2cc(Cc3ccccc3)n[nH]2)COc2ccccc21 [Example 108, (S)-3-benzyl-N-(5-methyl-4-oxo-2,3,4,5-tetrahydrobenzo[b] [1,4]oxazepin-3-yl)-1H-pyrazole-5-carboxamide]",56,–,–
"CN1C(=O)[C@@H](NC(=O)c2nnc(Cc3ccccc3)[nH]2)COc2cccc(F)c21 [Example 91, (S)-5-benzyl-N-(6-fluoro-5-methyl-4-oxo-2,3,4,5-tetrahydrobenzo[b] [1,4]oxazepin-3-yl)-4H-1,2,4-triazole-3-carboxamide]",–,~25.1,–
"CN1C(=O)[C@@H](NC(=O)c2cc(Oc3ccccc3)ccn2)COc2ccccc21 [Example 97, (S)-N-(5-methyl-4-oxo-2,3,4,5-tetrahydrobenzo[b] [1,4]oxazepin-3-yl)-4-phenoxypicolinamide]",70,–,–
"CN1C(=O)[C@@H](NC(=O)c2cc(Cc3ccccc3)[nH]n2)CNc2ccccc21 [Example 190, (S)-5-benzyl-N-(1-methyl-2-oxo-2,3,4,5-tetrahydro-1H-benzo[b] [1,4]diazepin-3-yl)-1H-pyrazole-3-carboxamide]",85,–,% Inhibition [2]: 56%
"O=C(N[C@H]1CCc2cc(Cl)ccc2NC1=O)c1nnc(Cc2ccccc2)[nH]1 [Example 161, (S)-5-benzyl-N-(7-chloro-2-oxo-2,3,4,5-tetrahydro-1H-benzo[b]azepin-3-yl)-4H-1,2,4-triazole-3-carboxamide]",–,~12.6,"IC50 [3, 6]: 20 nM; % Inhibition [2]: 82%; % Inhibition ([1]; oral pre-dose 50 mg/kg 15 minutes before i.v. mouse TNF and zVAD): 85%"
"CN1C(=O)[C@@H](NC(=O)c2cc(Cc3ccccc3)n[nH]2)COc2ccc(Br)cc21 [Example 20, (S)-3-benzyl-N-(7-bromo-5-methyl-4-oxo-2,3,4,5-tetrahydrobenzo[b] [1,4]oxazepin-3-yl)-1H-pyrazole-5-carboxamide]",52,–,% Inhibition [2]: 51%
"Cc1cc(F)c2c(c1)OC[C@H](NC(=O)c1nnc(CC3CCCC3)[nH]1)C(=O)N2 [Example 102, (S)-5-(cyclopentylmethyl)-N-(6-fluoro-8-methyl-4-oxo-2,3,4,5-tetrahydrobenzo[b] [1,4]oxazepin-3-yl)-4H-1,2,4-triazole-3-carboxamide]",–,~15.8,–
